Assay results published in patent EP2070521A1, “Surface-modified nanoparticles” (Bayer Schering Pharma Aktiengesellschaft, priority 2007, dated 2009).

Test: in vivo
Settings: male, NMRI nu/nu, mouse, iv, 8 mg/kg

## C=CC[C@H]1C(=O)C(C)(C)[C@@H](O)CC(=O)O[C@H](c2ccc3sc(C)nc3c2)C[C@@H]2O[C@]2(C)CCC[C@H](C)[C@@H]1O [epothilone, (1S,3S,7S, 10R,11S,12S,16R)-7,11-dihydroxy-10-(prop-2-en-1-yl)-3-(2-methyl-benzothiazol-5-yl)-8,8,12,16-tetramethyl-4,17-dioxabicyclo[14.1.0]heptadecane-5,9-dione]
  Kp at 1 h: 16.3
  Kp at 2 h: 29.1
  Kp at 4 h: 27.7
